According to PubChem BioAssay AID248 (DTP/NCI, 2004):
Several values for one entry are separate records, joined by “and”; a condition that tells them apart may be missing. Equal values may be shown once. Inconclusive results and toxic doses are left out. Rule as the data show it: active = T/C of 150% or more; inactive = T/C below 125%.

Test system: L1210 leukemia ip in BDF1 mice, survival T/C
Experiment: NCI In Vivo Anticancer Drug Screen. Data for tumor model L1210 Leukemia (intraperitoneal) in B6D2F1 (BDF1) mice
Conditions: endpoint: mean survival time, higher = longer survival
Procedure, shortened: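 Tumor was transplanted into mice, which were then dosed with test compound or vehicle alone. Survival was recorded for each group, and the treated figure was expressed relative to the control figure.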

[1] = dose: 100.0 mg/kg/injection, schedule: Q01DX001 (ip), vehicle: saline
[2] = dose: 100.0 mg/kg/injection, schedule: Q01DX009 (ip), vehicle: saline
[3] = dose: 100.0 mg/kg/injection, schedule: Q04DX003 (ip), vehicle: saline
[4] = dose: 200.0 mg/kg/injection, schedule: Q01DX001 (ip), vehicle: saline
[5] = dose: 200.0 mg/kg/injection, schedule: Q01DX009 (ip), vehicle: saline
[6] = dose: 400.0 mg/kg/injection, schedule: Q01DX001 (ip), vehicle: saline
[7] = dose: 25.0 mg/kg/injection, schedule: Q01DX009 (ip), vehicle: saline
[8] = dose: 25.0 mg/kg/injection, schedule: Q04DX003 (ip), vehicle: saline
[9] = dose: 50.0 mg/kg/injection, schedule: Q01DX009 (ip), vehicle: saline
[10] = dose: 50.0 mg/kg/injection, schedule: Q04DX003 (ip), vehicle: saline
[11] = dose: 100.0 mg/kg/injection, schedule: Q01DX001 (ip), vehicle: carboxymethylcellulose (CMC)
[12] = dose: 200.0 mg/kg/injection, schedule: Q01DX001 (ip), vehicle: carboxymethylcellulose (CMC)
[13] = dose: 400.0 mg/kg/injection, schedule: Q01DX001 (ip), vehicle: carboxymethylcellulose (CMC)
[14] = dose: 100.0 mg/kg/injection, schedule: Q04DX003 (ip), vehicle: saline with Tween-80
[15] = dose: 200.0 mg/kg/injection, schedule: Q04DX003 (ip), vehicle: saline with Tween-80
[16] = dose: 100.0 mg/kg/injection, schedule: Q01DX009 (ip), vehicle: saline with Tween-80
[17] = dose: 200.0 mg/kg/injection, schedule: Q01DX009 (ip), vehicle: saline with Tween-80
[18] = dose: 400.0 mg/kg/injection, schedule: Q01DX009 (ip), vehicle: saline with Tween-80
[19] = dose: 400.0 mg/kg/injection, schedule: Q04DX003 (ip), vehicle: saline with Tween-80
[20] = dose: 100.0 mg/kg/injection, schedule: Q04DX002 (ip), vehicle: Klucel (hydroxypropylcellulose) (HPC)
[21] = dose: 200.0 mg/kg/injection, schedule: Q04DX002 (ip), vehicle: Klucel (hydroxypropylcellulose) (HPC)
[22] = dose: 400.0 mg/kg/injection, schedule: Q04DX002 (ip), vehicle: Klucel (hydroxypropylcellulose) (HPC)
[23] = dose: 100.0 mg/kg/injection, schedule: Q01DX009 (ip), vehicle: Klucel (hydroxypropylcellulose) (HPC)
[24] = dose: 200.0 mg/kg/injection, schedule: Q01DX009 (ip), vehicle: Klucel (hydroxypropylcellulose) (HPC)
[25] = dose: 400.0 mg/kg/injection, schedule: Q01DX009 (ip), vehicle: Klucel (hydroxypropylcellulose) (HPC)
[26] = dose: 100.0 mg/kg/injection, schedule: Q04DX003 (ip), vehicle: Klucel (hydroxypropylcellulose) (HPC)
[27] = dose: 200.0 mg/kg/injection, schedule: Q04DX003 (ip), vehicle: Klucel (hydroxypropylcellulose) (HPC)
[28] = dose: 400.0 mg/kg/injection, schedule: Q04DX003 (ip), vehicle: Klucel (hydroxypropylcellulose) (HPC)
[29] = dose: 25.0 mg/kg/injection, schedule: Q01DX009 (ip), vehicle: saline with Tween-80

Measured: T/C

Cc1cc[n+]([O-])cc1
inactive: [1] 100 % of control | [2] 98 % of control | [3] 94 % of control | [4] 98 % of control | [5] 101 % of control | dose: 200.0 mg/kg/injection, schedule: Q04DX003 (ip), vehicle: saline 102 % of control | [6] 98 % of control | dose: 400.0 mg/kg/injection, schedule: Q01DX009 (ip), vehicle: saline 98 % of control | dose: 400.0 mg/kg/injection, schedule: Q04DX003 (ip), vehicle: saline 98 % of control

CC[P+](CC)(CC)CCCCI
inactive: dose: 12.0 mg/kg/injection, schedule: Q01DX009 (ip), vehicle: saline 94 % of control | [7] 101 % of control | [8] 105 % of control | [9] 101 % of control and 91 % of control | [10] 114 % of control

CN=C(c1ccc(NC(=O)c2ccc(C(=O)Nc3ccc(C(=NC)N(C)Cc4ccccc4)cc3)cc2)cc1)N(C)Cc1ccccc1
inactive: dose: 1.88 mg/kg/injection, schedule: Q01DX Z (ip), vehicle: saline 104 % of control | dose: 3.75 mg/kg/injection, schedule: Q01DX Z (ip), vehicle: saline 98 % of control | dose: 7.5 mg/kg/injection, schedule: Q01DX Z (ip), vehicle: saline 97 % of control

CC(=O)Nc1ccc(S(=O)(=O)N=S(c2ccccc2)c2ccccc2)cc1
inactive: dose: 50.0 mg/kg/injection, schedule: Q01DX001 (ip), vehicle: carboxymethylcellulose (CMC) 101 % of control | [11] 101 % of control | [12] 94 % of control | [13] 97 % of control

c1ccc2c3c([nH]c2c1)C1CC2CCCCC2CN1CC3 (stereo not given)
inactive: dose: 75.0 mg/kg/injection, schedule: Q01DX001 (ip), vehicle: saline 107 % of control | dose: 150.0 mg/kg/injection, schedule: Q01DX001 (ip), vehicle: saline 109 % of control

NC(=S)N/N=C/c1ccc([N+](=O)[O-])s1
inactive: dose: 12.5 mg/kg/injection, schedule: Q01DX005 (ip), vehicle: water 102 % of control | dose: 25.0 mg/kg/injection, schedule: Q01DX005 (ip), vehicle: water 98 % of control | dose: 50.0 mg/kg/injection, schedule: Q01DX005 (ip), vehicle: water 93 % of control | dose: 50.0 mg/kg/injection, schedule: Q04DX003 (ip), vehicle: saline with Tween-80 103 % of control | dose: 100.0 mg/kg/injection, schedule: Q01DX005 (ip), vehicle: water 100 % of control | [14] 104 % of control | dose: 100.0 mg/kg/injection, schedule: Q04DX003 (ip), vehicle: water 88 % of control | dose: 200.0 mg/kg/injection, schedule: Q01DX005 (ip), vehicle: water 94 % of control | [15] 100 % of control | dose: 200.0 mg/kg/injection, schedule: Q04DX003 (ip), vehicle: water 91 % of control

CC(=O)Oc1oc(-c2ccccc2)nc1-c1ccccc1
inactive: [16] 108 % of control | [14] 98 % of control | [17] 94 % of control | [15] 100 % of control | [18] 97 % of control | [19] 104 % of control

N#CCCCN=[N+]=[N-]
inactive: dose: 37.5 mg/kg/injection, schedule: Q04DX003 (ip), vehicle: saline 104 % of control

Cc1ccc(OCC(=O)Nc2ccc3c(c2)C(=O)c2ccccc2C3=O)c(C)c1
inactive: [11] 101 % of control | [12] 98 % of control | [13] 95 % of control

CC1(C)CC(=O)C2=C(C1)Nc1ccc(Cl)cc1NC2c1cccc([N+](=O)[O-])c1 (stereo not given)
inactive: [20] 98 % of control | [21] 105 % of control | [22] 102 % of control

CC12NC(=O)NC1(C)NC(=O)N2 (stereo not given)
inactive: [7] 89 % of control | [9] 95 % of control | [2] 96 % of control and 89 % of control | [14] 96 % of control | [5] 100 % of control | [15] 102 % of control | [19] 96 % of control

CCCCCCCCCCCCCCCCCCNC(=O)NCc1ccncc1
inactive: [20] 94 % of control | [21] 123 % of control | [22] 87 % of control

CN(C)c1ccc(/C=C\c2cc(=O)[nH]c3ccccc23)cc1
inactive: dose: 50.0 mg/kg/injection, schedule: Q01DX009 (ip), vehicle: Klucel (hydroxypropylcellulose) (HPC) 100 % of control | [23] 102 % of control | [24] 97 % of control | [25] 97 % of control

O=[N+]([O-])c1ccc(N=Cc2ccccc2)c(O)c1
inactive: [1] 93 % of control | [4] 98 % of control | [6] 98 % of control

CC1(C)C(=O)N(Br)C(=O)N1Br
inactive: dose: 12.5 mg/kg/injection, schedule: Q04DX003 (ip), vehicle: Klucel (hydroxypropylcellulose) (HPC) 92 % of control | dose: 25.0 mg/kg/injection, schedule: Q04DX003 (ip), vehicle: Klucel (hydroxypropylcellulose) (HPC) 103 % of control | dose: 50.0 mg/kg/injection, schedule: Q04DX003 (ip), vehicle: Klucel (hydroxypropylcellulose) (HPC) 103 % of control

N#CC(CC(=O)OCc1ccccc1)NC(=O)OCc1ccccc1 (stereo not given)
inactive: [16] 92 % of control | [17] 89 % of control | [18] 97 % of control

O=c1c2ccccc2cc2ccccn12
inactive: [23] 100 % of control | [26] 95 % of control | [24] 94 % of control | [27] 97 % of control | [25] 92 % of control | [28] 97 % of control

CO[Si](OC)(OC)OC
inactive: [29] 92 % of control | [8] 94 % of control | dose: 50.0 mg/kg/injection, schedule: Q01DX009 (ip), vehicle: saline with Tween-80 92 % of control | [10] 108 % of control | [14] 101 % of control | [3] 103 % of control

CCCCCCCCCCCCCCCCCCNC(=S)NC1CCCCC1
inactive: dose: 60.0 mg/kg/injection, schedule: Q01DX015 (ip), vehicle: carboxymethylcellulose (CMC) 98 % of control | dose: 120.0 mg/kg/injection, schedule: Q01DX015 (ip), vehicle: carboxymethylcellulose (CMC) 96 % of control | dose: 240.0 mg/kg/injection, schedule: Q01DX015 (ip), vehicle: carboxymethylcellulose (CMC) 96 % of control | dose: 480.0 mg/kg/injection, schedule: Q01DX015 (ip), vehicle: carboxymethylcellulose (CMC) 98 % of control

CCOC(=O)NCC[N+](C)(C)C
inactive: dose: 6.25 mg/kg/injection, schedule: Q01DX009 (ip), vehicle: saline 94 % of control | dose: 12.5 mg/kg/injection, schedule: Q01DX009 (ip), vehicle: saline 100 % of control | [7] 102 % of control

ClC1=NC(Cl)C(Cl)=N/C1=N\c1ncn[nH]1 (stereo not given)
inactive: dose: 6.25 mg/kg/injection, schedule: Q01DX009 (ip), vehicle: saline with Tween-80 103 % of control | dose: 12.5 mg/kg/injection, schedule: Q01DX009 (ip), vehicle: saline with Tween-80 97 % of control | [29] 105 % of control | dose: 31.25 mg/kg/injection, schedule: Q01DX009 (ip), vehicle: saline with Tween-80 87 % of control

O=[N+]([O-])c1ccc(-c2cnc(Nc3ccc(Cc4ccc(Nc5ncc(-c6ccc([N+](=O)[O-])cc6)s5)c(Cl)c4)cc3Cl)s2)cc1
inactive: [26] 98 % of control | [27] 106 % of control | [28] 98 % of control
